Data from BindingDB's records for doi:10.1021/jm0504961 (Merck Frosst Centre For Therapeutic Research, 2005).

How the values were obtained:
Procathepsin L = Procathepsin L (Homo sapiens, UniProt P07711); assay: Enzyme Inhibition Assay and Whole Cell Enzyme Occupancy Assay; conditions: pH 5.5; 22 °C
Protocol: (§1) Prior to the addition of substrate, different concentrations of the inhibitor ranging from 100 uM to 0.2 nM were preincubated for 15 min with enzyme to allow the establishment of the enzyme-inhibitor complex. The proteolytic cleavage of N-acyl aminocoumarins by cathepsins was conducted in 96-well plate format and the plate read using a Spectramax (Molecular Devices) plate reader. The excitation wavelength was 355 nm and the emission wavelength was 460 nm for peptidyl-AMC substrates. The percent inhibition of the reaction was calculated from a control reaction containing only vehicle. IC50 curves were generated by fitting percent inhibition values to a four parameter logistic model (SOFTMAX PRO, Molecular Devices). EC50/IC50 values were obtained from whole cell enzyme occupancy assays for human cathepsins B (in HepG2 cells), L (in HepG2 cells), and S (in Ramos cells).

Cathepsin S [1] = biological target: Cathepsin S (Homo sapiens, UniProt P25774); assay: as above; conditions: pH 6.5; 22 °C
Protocol: as §1

Cathepsin K = biological target: T1, Cathepsin K (Oryctolagus cuniculus, UniProt P43236); assay: Enzyme Inhibition Assay and Bone Resorption Assay; conditions: pH 5.5; 22 °C
T1 sequence (P43236 whole entry): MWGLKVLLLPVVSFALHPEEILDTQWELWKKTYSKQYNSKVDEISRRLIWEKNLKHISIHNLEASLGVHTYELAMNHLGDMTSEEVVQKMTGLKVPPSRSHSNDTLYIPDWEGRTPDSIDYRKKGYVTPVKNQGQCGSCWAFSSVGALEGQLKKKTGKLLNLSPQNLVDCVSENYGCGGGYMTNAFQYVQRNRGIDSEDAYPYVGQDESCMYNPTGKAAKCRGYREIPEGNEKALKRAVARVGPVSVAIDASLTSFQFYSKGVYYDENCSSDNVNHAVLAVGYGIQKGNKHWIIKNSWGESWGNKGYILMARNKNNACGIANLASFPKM
Protocol: (§2) Prior to the addition of substrate, different concentrations of the inhibitor ranging from 100 uM to 0.2 nM were preincubated for 15 min with enzyme to allow the establishment of the enzyme-inhibitor complex. […] The percent inhibition of the reaction was calculated from a control reaction containing only vehicle. IC50 curves were generated by fitting percent inhibition values to a four parameter logistic model (SOFTMAX PRO, Molecular Devices). EC50/IC50 values were obtained from functional rabbit bone resorption assay.

Cathepsin S [2] = biological target: Cathepsin S (Mouse, UniProt O70370); assay: Enzyme Inhibition Assay
Protocol: as §2, with “Devices).” for “Devices). EC50/IC50 values were obtained from functional rabbit bone resorption assay.”

Procathepsin L, sequence (P07711 whole entry): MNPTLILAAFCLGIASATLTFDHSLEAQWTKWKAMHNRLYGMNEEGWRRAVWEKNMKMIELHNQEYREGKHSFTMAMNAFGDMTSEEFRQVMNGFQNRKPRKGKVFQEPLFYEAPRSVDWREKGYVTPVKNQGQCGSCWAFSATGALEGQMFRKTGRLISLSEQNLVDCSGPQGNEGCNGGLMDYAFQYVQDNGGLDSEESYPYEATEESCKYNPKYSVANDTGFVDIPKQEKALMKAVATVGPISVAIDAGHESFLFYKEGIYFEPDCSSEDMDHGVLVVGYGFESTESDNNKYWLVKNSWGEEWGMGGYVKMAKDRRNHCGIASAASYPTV
Cathepsin S (Mouse, UniProt O70370), sequence (O70370 whole entry): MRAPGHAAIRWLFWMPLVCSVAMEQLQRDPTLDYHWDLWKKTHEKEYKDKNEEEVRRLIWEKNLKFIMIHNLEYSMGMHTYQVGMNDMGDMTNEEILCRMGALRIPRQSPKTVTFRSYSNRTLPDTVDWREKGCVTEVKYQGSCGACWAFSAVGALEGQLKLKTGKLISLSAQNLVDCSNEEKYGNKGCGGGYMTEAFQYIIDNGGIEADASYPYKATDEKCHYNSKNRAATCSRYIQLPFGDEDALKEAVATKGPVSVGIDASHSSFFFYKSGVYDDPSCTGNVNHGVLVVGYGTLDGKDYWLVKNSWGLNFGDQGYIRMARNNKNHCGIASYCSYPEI
Cathepsin S (Homo sapiens, UniProt P25774), sequence (P25774 whole entry): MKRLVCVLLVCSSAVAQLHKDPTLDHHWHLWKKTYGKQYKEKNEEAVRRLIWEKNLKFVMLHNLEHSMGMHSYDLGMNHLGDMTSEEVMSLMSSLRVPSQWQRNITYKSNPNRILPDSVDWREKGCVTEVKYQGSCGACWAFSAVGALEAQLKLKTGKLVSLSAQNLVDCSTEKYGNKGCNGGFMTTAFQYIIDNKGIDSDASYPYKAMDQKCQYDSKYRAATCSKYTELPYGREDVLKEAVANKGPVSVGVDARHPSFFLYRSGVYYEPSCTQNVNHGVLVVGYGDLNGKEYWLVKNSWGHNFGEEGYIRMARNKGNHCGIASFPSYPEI

Row | EC50 (Procathepsin L) [nM] | EC50 (Cathepsin S [1]) [nM] | EC50 (Cathepsin K) [nM] | EC50 (Cathepsin S [2]) [nM] | Structure (SMILES)
1 | 340 | 790 | 5 | 318 | CN1CCN(c2nc(-c3ccc(C(=O)NC4(C(=O)NCC#N)CCCCC4)cc3)cs2)CC1 [N-{1-[(cyanomethyl)carbamoyl]cyclohexyl}-4-[2-(4-methylpiperazin-1-yl)-1,3-thiazol-4-yl]benzamide]
2 | > 10000 | > 10000 | 41 | 6700 | N#CCNC(=O)C1(NC(=O)c2ccc(-c3csc(N4CCOCC4)n3)cc2)CCCCC1 [N-{1-[(cyanomethyl)carbamoyl]cyclohexyl}-4-[2-(morpholin-4-yl)-1,3-thiazol-4-yl]benzamide]
3 | > 10000 | 4800 | 580 | 8500 | N#CCNC(=O)C1(NC(=O)c2ccc(N3CCOCC3)cc2)CCCCC1 [N-{1-[(cyanomethyl)carbamoyl]cyclohexyl}-4-(morpholin-4-yl)benzamide]
4 | 230 | 10 | – | 40 | N#CCNC(=O)[C@H](CC1CCCCC1)NC(=O)c1ccccc1 [(2S)-N-(cyanomethyl)-3-cyclohexyl-2-(phenylformamido)propanamide]
5 | – | – | – | > 10000 | CN1CCN(c2nc(-c3ccc(C(=O)NC4(C(=O)NCC(F)(F)F)CCCCC4)cc3)cs2)CC1 [4-[2-(4-methylpiperazin-1-yl)-1,3-thiazol-4-yl]-N-{1-[(2,2,2-trifluoroethyl)carbamoyl]cyclohexyl}benzamide]
6 | 320 | 1340 | 149 | 740 | CC(C)C[C@@H](C(=O)NCC#N)c1cccc(-c2ccc(N3CCNCC3)cc2)c1 [(2R)-N-(cyanomethyl)-4-methyl-2-{3-[4-(piperazin-1-yl)phenyl]phenyl}pentanamide]
7 | 48 | 2900 | – | 480 | CCCN1CCN(c2ccc(C(=O)NC3(C(=O)NCC#N)CCCCC3)cc2)CC1 [N-[1-(cyanomethylcarbamoyl)cyclohexyl]-4-(4-propylpiperazin-1-yl)]
